Molecules are shown by their SMILES. Converted amounts (≈) assume the structure as drawn. Marks after values point to notes of the source that are not given here. A value given as a limit tells only on which side of the number the result lay.

Data set [1] in a line: log D7.4 by shake-flask method (1-octanol/PBS). It is filed as physicochemical. The following applies: 1-octanol/PBS, pH 7.4, 1-Octanol/PBS pH 7.4, shake-flask. As to the method: (§1) One explanation for the high IC50 values (i.e., low activity) of the new compounds is their potential poor solubility in aqueous solution or inadequate lipophilicity. To investigate this hypothesis, we determined kinetic solubility in […] phosphate buffer at pH 7.4 (Table 1). […] The remaining two compounds, BE and 29, show low solubilities (<0.1 μM). […] Additionally, since approximately 95% of drugs are ionizable, assessment of lipophilicity at pH 7.4 (log D7.4) is essential during the initial phases of drug discovery. In this study, we employ the shake-flask method to evaluate this property. […] Because lipophilicity directly reflects compound–membrane interaction, the activity of these compounds against PANC-1 cells likely stems from their interaction with the cell membrane.
The basic solution is titrated with the acidic solution to achieve pH 7.4, with the pH verified and adjusted to 7.4 ± 0.1 on the experiment day. Saturated 1-octanol and PBS (pH 7.4) are also prepared. The stock solutions of test compounds and control compound progesterone are prepared in DMSO at a concentration of 10 mM (0.666 mM: compound 39). The detailed procedure for log D determinations can be found in the SI. […]
4. Procedure for log D determinations […]
µL of phosphate buffer saturated 1-octanol to get a concentration of 300 µM working solution. 20 µL of 300 µM compound solution is placed in order into their proper 96-well rack followed by the addition of 980 µL of 1-octanol saturated phosphate buffer. One stir stick is added to each vial and vials are sealed molded PTFE/Silicone plugs. Then the log D plate is transferred to the Eppendorf Thermomixer Comfort plate shaker and shaken at 25°C at 1,100 RPM for 1 h. The assay is performed in duplicate. After completion of 1 h, the stir sticks are removed using a big magnet. The samples are then centrifuged at 25°C at 20,000 g for 20 minutes to separate the phases, and syringe is used to remove the lower (buffer) phases to the empty tubes. Then the buffer phase is diluted with the same volume of acetonitrile/ultrapure water (50%/50%) for LC-MS/MS analysis. 300 µM working solution is diluted with acetonitrile/ultrapure water (50%/50%) to achieve a concentration of 3 µM. Then the 3 µM solution is diluted to 0.3 µM to get the total samples by adding 4 volumes of acetonitrile/ultrapure water (50%/50%) and 5 volumes of 1-octanol saturated Phosphate Buffer for LC-MS/MS analysis. […]
test compounds and control compound is placed in order into their 2.0 mL deep well plate, 500 µL of […]
followed by the addition of 500 µL of saturated PBS (pH 7.4). Seal the plate using a Silicone sealing mat.
Then the log D plate is transferred to the Eppendorf Thermomixer Comfort plate shaker and shaken at 25°C at 2,000 RPM for 2 h. After completion of 2 h, the samples are then centrifuged at 25°C at 3,220 g for 30 minutes to separate the phases, and pipette are used to remove the upper (1-octanol) and lower (buffer) phases to the empty tubes, respectively. Aliquots of 50 µL are taken from upper phases followed by addition of 450 µL of acetonitrile (containing internal standards (IS, 200 nM labetalol, 100 nM tolbutamide and 100 nM ketoprofen)). Mix with a pipette, and then aliquots of 50 µL are taken from the diluent followed by addition of 450 µL of acetonitrile (containing internal standards (IS, 200 nM labetalol, 100 nM tolbutamide and 100 nM ketoprofen)). […]

The nature of data set [2]: Kinetic solubility in PBS pH 7.4. It is filed as physicochemical. The following applies: PBS pH 7.4, 25 °C; for solubility at 2 h: sodium phosphate buffer (PBS), 25 °C, pH 7.4, aqueous buffer, kinetic from dmso stock. As to the method: as §1
Solubility is determined in 100 mM sodium phosphate buffer (PBS), pH 7.4. The stock solutions of test compound and control compound progesterone are prepared in DMSO at a concentration of 10 mM. 30 µL of working solutions of each sample is placed in order into their proper 96-well rack. 970 µL of PBS pH 7.4 is added into each vial of the cap-less Solubility Sample plate. The assay is performed in duplicate. Add one stir stick to each vial and seal using a molded PTFE/Silicone plug. Then the Solubility Sample plate is transferred to the Eppendorf Thermomixer Comfort plate shaker and shaken at 25 °C at 1100 RPM for 2 h. After completion of the 2 h, plugs are removed and the stir sticks are removed using a big magnet, the samples from the Solubility Sample plate are transferred into the filter plate. Using the Vacuum Manifold, all the samples are filtered. Aliquot of 5 µL is taken from the filtrate, followed by addition of 5 µL DMSO and 490 µL of a mixture of H2O and acetonitrile (1:1 in v/v). 200 μL of diluent is transferred to a new 96-well plate for LC-MS/MS analysis (see SI Bioanalytical Method for Solubility Measurement). The dilution factor is changed according to the solubility values and the LC-MS signal response.
MRM) / -4500 v (negative MRM). […]
13. Bioanalytical Method for Solubility Measurement
MS analysis: Triple Quad TM 5500 instrument from AB Inc (Canada) with an ESI interface
Injection volume: 1 μL, 3 μL, 5 μL or 10 μL
Column: ACQUITY UPLC BEH C18 (2.1 × 50 mmI.D. S-1.7 μm, 12 nm) Column
Mobile phase: 0.1% Ammonium hydroxide solution in water (A) and 0.1% Ammonium hydroxide solution
Column: XSelect Hss T3 2.5μm (2.1 × 50 mm) Column XP
Mobile phase: 0.1% formic acid in water (A) and 0.1% formic acid in acetonitrile (B)

In turn, `C[C@@H]1C(=O)[C@](C)(O)C(=O)NCC(=O)N[C@H](CN2CCN(C)CC2)/C=C/C(=O)N(C)CC(=O)O[C@H]1CCCCCc1cn(CCCCCCCNc2cccc3c2CN(C2CCC(=O)NC2=O)C3=O)nn1` (some centres unmarked) [Compound 40] had a logD in data set [1] of 0.93. Further, the solubility at 2 h in data set [2] was 259 µM (≈ 252 µg/mL).
On to `CCCCOc1ccc(-c2ccc(-c3ccc(Cn4cc(CCCCC[C@H]5OC(=O)CN(C)C(=O)/C=C/[C@@H](CN6CCN(C)CC6)NC(=O)CNC(=O)[C@@](C)(O)C(=O)[C@H]5C)nn4)cc3)cc2)cc1` [Compound 29], for which the logD in data set [1] was 3.87. For the same compound, the Solubility in data set [2] (2 h) is <0.063 * µM. Further, the solubility at 2 h in data set [2] was less than 0.1 µM.
`CC1C(=O)C(C)(O)C(=O)NCC(=O)NC(CN2CCN(C)CC2)C=CC(=O)N(C)CC(=O)OC1CCCCc1cn(CCCCCCCCNC(=N)N)nn1` (centres unmarked) [Compound 31]: the solubility at 2 h in data set [2] came to 268 µM (≈ 207 µg/mL).
In data set [1], `CCCCCCCCCCCCCC1OC(=O)CN(C)C(=O)C=CC(CN2CCN(C)CC2)NC(=O)CNC(=O)C(C)(O)C(=O)C1C` (centres unmarked) [BE-NMP] registered a logD greater than 5. In data set [2], this compound had a solubility at 2 h of 210 µM (≈ 139 µg/mL).

Values taken from paper PMC12843137, “Fine-Tuning Side Chain Substitutions: Impacts on the Lipophilicity–Solubility–Permeability Interplay in Macrocyclic Peptides” (Marine Drugs, 2025).
